Test results reported in ChEMBL document CHEMBL1201862, “PubChem BioAssay data set” (2004).
Calls of active or inactive are those of the source.

Assays:
[1] = target: T1, Streptokinase A (Streptococcus pyogenes serotype M1, UniProt P10520); assay: viability-normalized secreted streptokinase activity reduction – plasminogen activation absorbance, OD405, dose response (AID 1914); assay type: functional, Streptococcus pyogenes M1 GAS;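 also: secreted streptokinase activity via plasminogen activation per viability signal from cell pellet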
T1 sequence (P10520 whole entry): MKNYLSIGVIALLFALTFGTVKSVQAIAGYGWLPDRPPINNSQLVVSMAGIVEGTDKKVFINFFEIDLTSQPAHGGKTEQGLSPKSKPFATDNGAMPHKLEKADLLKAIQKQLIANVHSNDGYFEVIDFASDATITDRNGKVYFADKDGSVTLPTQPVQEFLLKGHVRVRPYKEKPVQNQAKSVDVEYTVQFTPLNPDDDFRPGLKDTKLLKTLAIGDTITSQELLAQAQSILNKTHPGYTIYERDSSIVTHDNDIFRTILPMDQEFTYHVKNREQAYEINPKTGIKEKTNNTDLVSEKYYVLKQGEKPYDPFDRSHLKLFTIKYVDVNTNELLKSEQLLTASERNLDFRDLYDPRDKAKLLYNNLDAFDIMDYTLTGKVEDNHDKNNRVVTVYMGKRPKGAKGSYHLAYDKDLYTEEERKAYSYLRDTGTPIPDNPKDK

[2] = tested on: Streptococcus; assay: GAS UMAA2166 growth inhibition – luminescence, BacTiterGlo, counter-screen for streptokinase expression inhibitor project, dose response (AID 1915); assay type: functional, organism-based;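 also: potency for reduction of bacterial viability or growth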
[3] = tested on: Streptococcus sp. 'group A'; assay: Streptococcus pyogenes SK(-)GAS viability under kanamycin – luminescence, BacTiterGlo, confirmation, counter-screen for streptokinase expression inhibitor project, dose response (AID 1900); assay type: functional, organism-based
[4] = target: FAD-linked sulfhydryl oxidase ALR (Homo sapiens, UniProt P55789); assay: ALR-catalysed DTT oxidation blockers – biochemical, H2O2 detection, luminescence, cherry-pick, dose response (AID 493248)
FAD-linked sulfhydryl oxidase ALR, sequence (P55789 whole entry): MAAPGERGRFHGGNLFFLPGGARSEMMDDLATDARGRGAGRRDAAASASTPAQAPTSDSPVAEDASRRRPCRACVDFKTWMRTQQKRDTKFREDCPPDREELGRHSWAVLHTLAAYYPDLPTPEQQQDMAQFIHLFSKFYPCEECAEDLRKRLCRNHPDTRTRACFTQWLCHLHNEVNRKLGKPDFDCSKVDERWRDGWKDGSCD

[5] = target: Cytochrome P450 2C9 (Homo sapiens, UniProt P11712)
Cytochrome P450 2C9, sequence (P11712 whole entry): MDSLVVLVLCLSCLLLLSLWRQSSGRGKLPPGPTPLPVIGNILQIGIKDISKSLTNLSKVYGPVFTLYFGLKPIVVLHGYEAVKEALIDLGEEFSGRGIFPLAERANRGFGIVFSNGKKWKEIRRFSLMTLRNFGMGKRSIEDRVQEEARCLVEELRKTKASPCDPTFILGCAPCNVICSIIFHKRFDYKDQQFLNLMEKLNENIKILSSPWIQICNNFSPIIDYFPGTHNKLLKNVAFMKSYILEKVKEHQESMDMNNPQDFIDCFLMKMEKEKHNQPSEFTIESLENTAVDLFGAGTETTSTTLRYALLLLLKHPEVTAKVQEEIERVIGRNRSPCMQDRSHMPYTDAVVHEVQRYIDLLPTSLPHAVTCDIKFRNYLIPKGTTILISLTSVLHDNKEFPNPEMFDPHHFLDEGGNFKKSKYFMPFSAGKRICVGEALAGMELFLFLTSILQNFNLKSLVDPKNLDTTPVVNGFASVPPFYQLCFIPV

[6] = target: Cytochrome P450 2D6 (Homo sapiens, UniProt P10635);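 also: CYP2D6 member of a cytochrome P450 panel assay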
Cytochrome P450 2D6, sequence (P10635 whole entry): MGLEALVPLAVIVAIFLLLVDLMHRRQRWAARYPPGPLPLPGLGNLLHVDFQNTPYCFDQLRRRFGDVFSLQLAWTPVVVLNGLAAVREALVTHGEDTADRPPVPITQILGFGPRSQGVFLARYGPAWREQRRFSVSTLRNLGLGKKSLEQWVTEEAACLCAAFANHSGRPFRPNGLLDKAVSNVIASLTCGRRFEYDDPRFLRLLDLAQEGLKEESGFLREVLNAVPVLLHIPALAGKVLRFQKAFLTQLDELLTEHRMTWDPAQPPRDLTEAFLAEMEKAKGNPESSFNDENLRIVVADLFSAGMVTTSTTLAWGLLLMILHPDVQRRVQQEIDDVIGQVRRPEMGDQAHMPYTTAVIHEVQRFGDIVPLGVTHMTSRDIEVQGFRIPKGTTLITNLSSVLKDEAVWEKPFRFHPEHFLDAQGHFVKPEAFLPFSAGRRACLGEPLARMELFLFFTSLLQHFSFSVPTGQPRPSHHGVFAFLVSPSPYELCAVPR

[7] = target: Cytochrome P450 3A4 (Homo sapiens, UniProt P08684);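 also: CYP3A4 tested as one member of a cytochrome P450 panel screen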
Cytochrome P450 3A4, sequence (P08684 whole entry): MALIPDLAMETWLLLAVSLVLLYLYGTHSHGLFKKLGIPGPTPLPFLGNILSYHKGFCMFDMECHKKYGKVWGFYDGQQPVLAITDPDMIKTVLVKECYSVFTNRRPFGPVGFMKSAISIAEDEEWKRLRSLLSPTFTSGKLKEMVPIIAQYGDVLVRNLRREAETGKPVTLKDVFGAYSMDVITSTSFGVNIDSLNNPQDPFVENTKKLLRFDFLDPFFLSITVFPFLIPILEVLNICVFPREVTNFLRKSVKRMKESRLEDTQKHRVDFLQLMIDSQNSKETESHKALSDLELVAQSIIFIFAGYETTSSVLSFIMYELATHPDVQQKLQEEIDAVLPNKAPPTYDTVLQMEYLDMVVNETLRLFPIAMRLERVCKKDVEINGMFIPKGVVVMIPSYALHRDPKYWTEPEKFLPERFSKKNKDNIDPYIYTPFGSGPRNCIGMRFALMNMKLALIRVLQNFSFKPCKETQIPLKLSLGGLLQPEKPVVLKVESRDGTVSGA

[8] = target: Paired box protein Pax-8 (Homo sapiens, UniProt Q06710); assay: PAX8 transcriptional activity inhibition in RMG-I – RMG-I cells, luciferase, cherry-pick, dose response (AID 687027); assay type: functional, cell-based;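 also: luciferase reporter driven by Pax8 target thyroperoxidase promoter measured by SteadyGlo luminescence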
Paired box protein Pax-8, sequence (Q06710 whole entry): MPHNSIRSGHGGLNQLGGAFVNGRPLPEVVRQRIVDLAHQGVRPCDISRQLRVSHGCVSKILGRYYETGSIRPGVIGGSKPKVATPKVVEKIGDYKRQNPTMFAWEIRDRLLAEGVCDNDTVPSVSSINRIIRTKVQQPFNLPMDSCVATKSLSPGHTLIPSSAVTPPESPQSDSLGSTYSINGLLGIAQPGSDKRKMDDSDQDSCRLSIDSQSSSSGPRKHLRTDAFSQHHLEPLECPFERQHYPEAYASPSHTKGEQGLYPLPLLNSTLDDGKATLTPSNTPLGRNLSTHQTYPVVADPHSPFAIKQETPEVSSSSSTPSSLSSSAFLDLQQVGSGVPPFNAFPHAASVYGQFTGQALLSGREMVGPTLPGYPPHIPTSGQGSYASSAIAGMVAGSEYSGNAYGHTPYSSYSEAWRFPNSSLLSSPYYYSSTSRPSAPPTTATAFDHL

Structure (SMILES): CCOC(=O)C1=C(N)Oc2ccc3ccccc3c2C1c1ccc(O)cc1 (stereo unspecified)
- EC50 [1]: 11.5 µM (active)
- EC50 [2]: > 150 µM (not active)
- EC50 [3]: 8.94 µM (active)

Structure (SMILES): CN1c2ccc([N+](=O)[O-])cc2C(C)(C)C12C=Cc1cc(C(=O)O)ccc1O2 (stereo unspecified)
- AC50 [4]: 1.47 µM (active)

Structure (SMILES): N#Cc1cccc(-c2ccc3ncnc(NCc4cccs4)c3c2)c1
- AC50 [5]: 0.501 µM (inconclusive)
- AC50 [6]: 12.6 µM (inconclusive)

Structure (SMILES): CC(NC(=O)CCCCCNC(=O)N1CCn2c1nc1ccccc12)c1ccccc1 (stereo unspecified)
- AC50 [4]: 4.51 µM (active)

Structure (SMILES): Cc1nn(CC(O)CN2c3ccccc3Sc3ccccc32)c(C)c1Br (stereo unspecified)
- EC50 [1]: 8 µM (active)
- EC50 [2]: 21.4 µM (active)
- EC50 [3]: 3.47 µM (active)

Structure (SMILES): Cc1nnc(O)c2c(NC(=O)CSc3nnnn3-c3ccccc3)oc(C)c12
- EC50 [1]: > 150 µM (not active)
- EC50 [2]: > 150 µM (not active)
- EC50 [3]: > 150 µM (not active)

Structure (SMILES): CC(C)C(=O)Nc1ccc(C(=O)NNC(=O)C(c2ccccc2)c2ccccc2)cc1
- AC50 [7]: 4.47 µM (inconclusive)
- AC50 [5]: 5.01 µM (inconclusive)

Structure (SMILES): Cc1cccc(OCc2nnc(S)n2-c2ccccc2)c1
- AC50 [4]: 1.6 µM (active)

Structure (SMILES): CCC1C(=O)N=C(SCC(=O)Nc2ccc(C(=O)OC)cc2)NC1=O (stereo unspecified)
- AC50 [5]: 31.6 µM (inconclusive)

Structure (SMILES): Cc1ccc(Nc2nc(CSc3n[nH]c(N)n3)cs2)cc1
- AC50 [4]: < 0.005 µM (active)

Structure (SMILES): CC(C)CN(C(=O)COc1ccc(-c2nnco2)cc1)C1CCS(=O)(=O)C1 (stereo unspecified)
- EC50 [1]: > 150 µM (not active)
- EC50 [2]: > 150 µM (not active)
- EC50 [3]: > 150 µM (not active)

Structure (SMILES): COC(=O)c1cnn(C(=O)c2ccccc2Br)c1N
- AC50 [5]: 22.4 µM (inconclusive)

Structure (SMILES): Cc1cccc(C)c1OCC(=O)Nc1ccccc1N1CCCCC1
- EC50 [1]: 4.15 µM (active)
- EC50 [2]: 12.5 µM (active)
- EC50 [3]: 3.36 µM (active)

Structure (SMILES): CCCCC(NC(=O)CCc1c(C)c2cc3c4c(oc3c(C)c2oc1=O)CCCC4)C(=O)O (stereo unspecified)
- AC50 [4]: 7.78 µM (active)

Structure (SMILES): CCOc1cc(CNc2ccc(OC)cc2)cc(Br)c1OCC(=O)NC(C)(C)C
- AC50 [5]: 7.08 µM (inconclusive)

Structure (SMILES): Cc1ccccc1NC(=O)C(=O)NC(C)CCc1ccccc1 (stereo unspecified)
- EC50 [1]: > 150 µM (not active)
- EC50 [2]: > 150 µM (not active)
- EC50 [3]: > 150 µM (not active)

Structure (SMILES): CCN(CC)C(=O)c1csc(Nc2ccc(C)cc2)n1
- AC50 [4]: 5.19 µM (active)

Structure (SMILES): CCCCOc1ccc(C(=O)N/C(=C\c2cccc([N+](=O)[O-])c2)C(=O)OCCC)cc1
- AC50 [5]: 0.708 µM (inconclusive)

Structure (SMILES): CCOC(=O)c1cnn(-c2nc(-c3cccc(F)c3)cs2)c1C(F)(F)F
- EC50 [1]: 20.8 µM (active)
- EC50 [2]: 17.6 µM (active)
- EC50 [3]: 9.99 µM (active)

Structure (SMILES): Oc1cccc2ccc(/C=C/c3c(F)cccc3Cl)nc12
- EC50 [1]: > 150 µM (not active)
- EC50 [2]: 32.2 µM (active)
- EC50 [3]: 0.589 µM (active)

Structure (SMILES): O=C(Cc1ccccc1)NNc1c2ccccc2nc2ccccc12
- AC50 [4]: 2.43 µM (active)

Structure (SMILES): CC(C)c1ccc(CNc2cc(N3CCCC3)ccc2[N+](=O)[O-])cc1
- AC50 [5]: 2.24 µM (inconclusive)

Structure (SMILES): Cc1cccc(-n2c(-c3ccoc3C)n[nH]c2=S)c1
- AC50 [4]: 7.34 µM (active)

Structure (SMILES): Cc1ccccc1N=Nc1c(N)n[nH]c1N
- AC50 [4]: 5.72 µM (active)

Structure (SMILES): CNS(=O)(=O)c1cnccc1N1CCN(c2cccc(C)c2)CC1
- AC50 [4]: < 0.005 µM (active)

Structure (SMILES): CNc1ccc(C2(O)C(=O)c3ccccc3C2=O)cc1
- AC50 [4]: 0.664 µM (active)

Structure (SMILES): C[C@@H]1CN([C@H](C)CO)C(=O)c2cc(NS(=O)(=O)c3ccc(Cl)cc3)ccc2O[C@@H](C)CCCCO[C@H]1CN(C)C(=O)C1CCCCC1
- AC50 [8]: 15.8 µM (active)

Structure (SMILES): COc1ccc(CC(=O)N/N=C(\C)CC(=O)Nc2ccc(N(C)C)cc2)cc1
- AC50 [4]: 2.04 µM (active)

Structure (SMILES): CC/C(=N\NC(=S)Nc1cc(C)ccc1C)c1ccc(OC(F)F)cc1
- EC50 [1]: > 150 µM (not active)
- EC50 [2]: 11.8 µM (active)
- EC50 [3]: 6.27 µM (active)

Structure (SMILES): CN(C)c1ccc(/C=N/NC(=O)c2ccc3c(c2)OCO3)cc1
- AC50 [4]: 4.72 µM (active)

Structure (SMILES): Sc1nnc(-c2ccccc2)c(-c2ccccc2)n1
- AC50 [4]: 0.567 µM (active)
